Reference: article PMC4767141, “Discovery of Potent, Orally Bioavailable, Small-Molecule Inhibitors of WNT Signaling from a Cell-Based Pathway Screen” (Journal of Medicinal Chemistry, 2015)

Assays:
BMX = biological target: T1, BMX (Homo sapiens, UniProt P51813); experiment: Millipore kinase panel; type: biochemical; conditions: read-out: % Control
T1 construct: purchased Millipore KinaseProfiler (kinases); Cerep (receptors and ion channels)

NTS1 (NT1) (h) = biological target: T2, NTS1 (NT1) (h) (Homo sapiens, UniProt P30989); experiment: CEREP binding panel; conditions: agonist radioligand, read-out: % Inhibition of Control Specific Binding
T2 construct: purchased Millipore KinaseProfiler (kinases); Cerep (receptors and ion channels)

PIM-2 = biological target: T3, PIM-2 (Homo sapiens, UniProt Q9P1W9); experiment: Millipore kinase panel; type: biochemical; conditions: read-out: % Control
T3 construct: purchased Millipore KinaseProfiler (kinases); Cerep (receptors and ion channels)

ROCK-I = biological target: T4, ROCK-I (Homo sapiens, UniProt Q13464); experiment: Millipore kinase panel; type: biochemical; conditions: read-out: % Control
T4 construct: purchased Millipore KinaseProfiler (kinases); Cerep (receptors and ion channels)

5-HT3 (h) = biological target: T5, 5-HT3 (h) (Homo sapiens, UniProt P46098); experiment: CEREP binding panel; conditions: antagonist radioligand, read-out: % Inhibition of Control Specific Binding
T5 construct: purchased Millipore KinaseProfiler (kinases); Cerep (receptors and ion channels)

5-HT2A (h) = biological target: T6, 5-HT2A (h) (Homo sapiens, UniProt P28223); experiment: CEREP binding panel; conditions: antagonist radioligand, read-out: % Inhibition of Control Specific Binding
T6 construct: purchased Millipore KinaseProfiler (kinases); Cerep (receptors and ion channels)

CDK3/CYCLINE = biological target: T7, CDK3/CYCLINE (Homo sapiens, UniProt Q00526); experiment: Millipore kinase panel; type: biochemical; conditions: read-out: % Control
T7 construct: purchased Millipore KinaseProfiler (kinases); Cerep (receptors and ion channels)

GRK7 = biological target: T8, GRK7 (Homo sapiens, UniProt Q8WTQ7); experiment: Millipore kinase panel; type: biochemical; conditions: read-out: % Control
T8 construct: purchased Millipore KinaseProfiler (kinases); Cerep (receptors and ion channels)

sst (non-selective) = experiment: CEREP binding panel; conditions: 10 μM, agonist radioligand
NEK6 = biological target: T9, NEK6 (Homo sapiens, UniProt Q9HC98); experiment: Millipore kinase panel; type: biochemical; conditions: read-out: % Control
T9 construct: purchased Millipore KinaseProfiler (kinases); Cerep (receptors and ion channels)

SRPK1 = biological target: T10, SRPK1 (Homo sapiens, UniProt Q96SB4); experiment: Millipore kinase panel; type: biochemical; conditions: read-out: % Control
T10 construct: purchased Millipore KinaseProfiler (kinases); Cerep (receptors and ion channels)

CCK1 (CCKA) (h) = biological target: T11, CCK1 (CCKA) (h) (Homo sapiens, UniProt P32238); experiment: CEREP binding panel; conditions: agonist radioligand, read-out: % Inhibition of Control Specific Binding
T11 construct: purchased Millipore KinaseProfiler (kinases); Cerep (receptors and ion channels)

LIMK1 = biological target: T12, LIMK1 (Homo sapiens, UniProt P53667); experiment: Millipore kinase panel; type: biochemical; conditions: read-out: % Control
T12 construct: purchased Millipore KinaseProfiler (kinases); Cerep (receptors and ion channels)

STK33 = biological target: T13, STK33 (Homo sapiens, UniProt Q9BYT3); experiment: Millipore kinase panel; type: biochemical; conditions: read-out: % Control
T13 construct: purchased Millipore KinaseProfiler (kinases); Cerep (receptors and ion channels)

RON = biological target: T14, RON (Homo sapiens, UniProt Q04912); experiment: Millipore kinase panel; type: biochemical; conditions: read-out: % Control
T14 construct: purchased Millipore KinaseProfiler (kinases); Cerep (receptors and ion channels)

MSK2 = biological target: T15, MSK2 (Homo sapiens, UniProt O75676); experiment: Millipore kinase panel; type: biochemical; conditions: read-out: % Control
T15 construct: purchased Millipore KinaseProfiler (kinases); Cerep (receptors and ion channels)

YES = biological target: T16, YES (Homo sapiens, UniProt P07947); experiment: Millipore kinase panel; type: biochemical; conditions: read-out: % Control
T16 construct: purchased Millipore KinaseProfiler (kinases); Cerep (receptors and ion channels)

PKG1ALPHA = biological target: T17, PKG1ALPHA (Homo sapiens, UniProt Q13976); experiment: Millipore kinase panel; type: biochemical; conditions: read-out: % Control
T17 construct: purchased Millipore KinaseProfiler (kinases); Cerep (receptors and ion channels)

Na+ channel (site 2) = experiment: CEREP binding panel; conditions: 10 μM, antagonist radioligand
MINK = biological target: T18, MINK (Homo sapiens, UniProt Q8N4C8); experiment: Millipore kinase panel; type: biochemical; conditions: read-out: % Control
T18 construct: purchased Millipore KinaseProfiler (kinases); Cerep (receptors and ion channels)

CAMKI = biological target: T19, CAMKI (Homo sapiens, UniProt Q14012); experiment: Millipore kinase panel; type: biochemical; conditions: read-out: % Control
T19 construct: purchased Millipore KinaseProfiler (kinases); Cerep (receptors and ion channels)

PRKAA1 = biological target: T20, PRKAA1 (Homo sapiens, UniProt Q13131); experiment: Millipore kinase panel; type: biochemical; conditions: read-out: % Control
T20 construct: purchased Millipore KinaseProfiler (kinases); Cerep (receptors and ion channels)

RSK4 = biological target: T21, RSK4 (Homo sapiens, UniProt Q9UK32); experiment: Millipore kinase panel; type: biochemical; conditions: read-out: % Control
T21 construct: purchased Millipore KinaseProfiler (kinases); Cerep (receptors and ion channels)

SRC = biological target: T22, SRC (Homo sapiens, UniProt P12931); experiment: Millipore kinase panel; type: biochemical; conditions: read-out: % Control
T22 construct: purchased Millipore KinaseProfiler (kinases); Cerep (receptors and ion channels)

SNK = biological target: T23, SNK (Homo sapiens, UniProt Q9NYY3); experiment: Millipore kinase panel; type: biochemical; conditions: read-out: % Control
T23 construct: purchased Millipore KinaseProfiler (kinases); Cerep (receptors and ion channels)

AURKB = biological target: T24, AURKB (Homo sapiens, UniProt Q96GD4); experiment: Millipore kinase panel; type: biochemical; conditions: read-out: % Control
T24 construct: purchased Millipore KinaseProfiler (kinases); Cerep (receptors and ion channels)

FGR = biological target: T25, FGR (Homo sapiens, UniProt P09769); experiment: Millipore kinase panel; type: biochemical; conditions: read-out: % Control
T25 construct: purchased Millipore KinaseProfiler (kinases); Cerep (receptors and ion channels)

MLCK = biological target: T26, MLCK (Homo sapiens, UniProt Q9H1R3); experiment: Millipore kinase panel; type: biochemical; conditions: read-out: % Control
T26 construct: purchased Millipore KinaseProfiler (kinases); Cerep (receptors and ion channels)

HIPK1 = biological target: T27, HIPK1 (Homo sapiens, UniProt Q86Z02); experiment: Millipore kinase panel; type: biochemical; conditions: read-out: % Control
T27 construct: purchased Millipore KinaseProfiler (kinases); Cerep (receptors and ion channels)

HIPK2 = biological target: T28, HIPK2 (Homo sapiens, UniProt Q9H2X6); experiment: Millipore kinase panel; type: biochemical; conditions: read-out: % Control
T28 construct: purchased Millipore KinaseProfiler (kinases); Cerep (receptors and ion channels)

TIE2 = biological target: T29, TIE2 (Homo sapiens, UniProt Q02763); experiment: Millipore kinase panel; type: biochemical; conditions: read-out: % Control
T29 construct: purchased Millipore KinaseProfiler (kinases); Cerep (receptors and ion channels)

dopamine transporter (h) = biological target: T30, dopamine transporter (h) (Homo sapiens, UniProt Q01959); experiment: CEREP binding panel; conditions: antagonist radioligand, read-out: % Inhibition of Control Specific Binding
T30 construct: purchased Millipore KinaseProfiler (kinases); Cerep (receptors and ion channels)

FGFR1 = biological target: T31, FGFR1 (Homo sapiens, UniProt P11362); experiment: Millipore kinase panel; type: biochemical; conditions: read-out: % Control
T31 construct: purchased Millipore KinaseProfiler (kinases); Cerep (receptors and ion channels)

β1 (h) = biological target: T32, β1 (h) (Homo sapiens, UniProt P08588); experiment: CEREP binding panel; conditions: agonist radioligand, read-out: % Inhibition of Control Specific Binding
T32 construct: purchased Millipore KinaseProfiler (kinases); Cerep (receptors and ion channels)

PDGFRALPHA = biological target: T33, PDGFRALPHA (Homo sapiens, UniProt P16234); experiment: Millipore kinase panel; type: biochemical; conditions: read-out: % Control
T33 construct: purchased Millipore KinaseProfiler (kinases); Cerep (receptors and ion channels)

LKB1 = biological target: T34, LKB1 (Homo sapiens, UniProt Q15831); experiment: Millipore kinase panel; type: biochemical; conditions: read-out: % Control
T34 construct: purchased Millipore KinaseProfiler (kinases); Cerep (receptors and ion channels)

TSSK1 = biological target: T35, TSSK1 (Homo sapiens, UniProt Q9BXA7); experiment: Millipore kinase panel; type: biochemical; conditions: read-out: % Control
T35 construct: purchased Millipore KinaseProfiler (kinases); Cerep (receptors and ion channels)

Y1 (h) = biological target: T36, Y1 (h) (Homo sapiens, UniProt P25929); experiment: CEREP binding panel; conditions: agonist radioligand, read-out: % Inhibition of Control Specific Binding
T36 construct: purchased Millipore KinaseProfiler (kinases); Cerep (receptors and ion channels)

VRK2 = biological target: T37, VRK2 (Homo sapiens, UniProt Q86Y07); experiment: Millipore kinase panel; type: biochemical; conditions: read-out: % Control
T37 construct: purchased Millipore KinaseProfiler (kinases); Cerep (receptors and ion channels)

H2 (h) = biological target: T38, H2 (h) (Homo sapiens, UniProt P25021); experiment: CEREP binding panel; conditions: antagonist radioligand, read-out: % Inhibition of Control Specific Binding
T38 construct: purchased Millipore KinaseProfiler (kinases); Cerep (receptors and ion channels)

BRSK2 = biological target: T39, BRSK2 (Homo sapiens, UniProt Q8IWQ3); experiment: Millipore kinase panel; type: biochemical; conditions: read-out: % Control
T39 construct: purchased Millipore KinaseProfiler (kinases); Cerep (receptors and ion channels)

SIK = biological target: T40, SIK (Homo sapiens, UniProt P57059); experiment: Millipore kinase panel; type: biochemical; conditions: read-out: % Control
T40 construct: purchased Millipore KinaseProfiler (kinases); Cerep (receptors and ion channels)

β2 (h) = biological target: T41, β2 (h) (Homo sapiens, UniProt P07550); experiment: CEREP binding panel; conditions: agonist radioligand, read-out: % Inhibition of Control Specific Binding
T41 construct: purchased Millipore KinaseProfiler (kinases); Cerep (receptors and ion channels)

FLT1 = biological target: T42, FLT1 (Homo sapiens, UniProt P17948); experiment: Millipore kinase panel; type: biochemical; conditions: read-out: % Control
T42 construct: purchased Millipore KinaseProfiler (kinases); Cerep (receptors and ion channels)

T37 sequence (Q86Y07 whole entry): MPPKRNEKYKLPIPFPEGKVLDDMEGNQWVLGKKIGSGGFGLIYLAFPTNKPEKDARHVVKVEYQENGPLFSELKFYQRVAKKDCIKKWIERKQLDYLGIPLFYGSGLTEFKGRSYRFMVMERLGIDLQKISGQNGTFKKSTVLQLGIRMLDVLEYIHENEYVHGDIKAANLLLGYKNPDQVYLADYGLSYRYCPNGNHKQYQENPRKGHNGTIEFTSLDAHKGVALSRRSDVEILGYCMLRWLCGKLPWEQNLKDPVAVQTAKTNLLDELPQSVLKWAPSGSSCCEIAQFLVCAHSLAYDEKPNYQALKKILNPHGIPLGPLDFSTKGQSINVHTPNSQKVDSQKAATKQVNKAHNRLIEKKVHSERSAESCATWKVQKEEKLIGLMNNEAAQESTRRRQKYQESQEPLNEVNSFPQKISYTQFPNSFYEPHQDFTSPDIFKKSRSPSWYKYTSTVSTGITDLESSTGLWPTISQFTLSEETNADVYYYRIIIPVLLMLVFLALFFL
T7 sequence (Q00526 whole entry): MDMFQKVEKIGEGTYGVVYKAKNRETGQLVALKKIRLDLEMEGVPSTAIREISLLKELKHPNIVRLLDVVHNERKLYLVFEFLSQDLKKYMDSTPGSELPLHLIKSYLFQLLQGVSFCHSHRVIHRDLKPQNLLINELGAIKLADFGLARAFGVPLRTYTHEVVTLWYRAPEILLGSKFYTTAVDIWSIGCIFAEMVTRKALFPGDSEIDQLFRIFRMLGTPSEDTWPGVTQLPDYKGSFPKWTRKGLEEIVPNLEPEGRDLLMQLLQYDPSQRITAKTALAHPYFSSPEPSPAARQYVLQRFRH
T7 sequence (P24864 whole entry partner): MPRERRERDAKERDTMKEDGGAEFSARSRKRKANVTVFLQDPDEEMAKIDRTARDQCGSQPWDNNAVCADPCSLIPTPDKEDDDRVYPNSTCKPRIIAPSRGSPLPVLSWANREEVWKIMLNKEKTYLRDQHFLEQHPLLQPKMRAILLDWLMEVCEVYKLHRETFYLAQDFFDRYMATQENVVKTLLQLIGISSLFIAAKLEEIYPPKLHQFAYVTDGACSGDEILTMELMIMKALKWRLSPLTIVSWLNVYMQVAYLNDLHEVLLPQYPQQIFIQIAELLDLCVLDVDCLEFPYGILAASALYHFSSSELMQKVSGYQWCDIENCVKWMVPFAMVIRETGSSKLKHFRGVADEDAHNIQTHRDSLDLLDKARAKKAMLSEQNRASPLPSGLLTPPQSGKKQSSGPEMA
T32 sequence (P08588 whole entry): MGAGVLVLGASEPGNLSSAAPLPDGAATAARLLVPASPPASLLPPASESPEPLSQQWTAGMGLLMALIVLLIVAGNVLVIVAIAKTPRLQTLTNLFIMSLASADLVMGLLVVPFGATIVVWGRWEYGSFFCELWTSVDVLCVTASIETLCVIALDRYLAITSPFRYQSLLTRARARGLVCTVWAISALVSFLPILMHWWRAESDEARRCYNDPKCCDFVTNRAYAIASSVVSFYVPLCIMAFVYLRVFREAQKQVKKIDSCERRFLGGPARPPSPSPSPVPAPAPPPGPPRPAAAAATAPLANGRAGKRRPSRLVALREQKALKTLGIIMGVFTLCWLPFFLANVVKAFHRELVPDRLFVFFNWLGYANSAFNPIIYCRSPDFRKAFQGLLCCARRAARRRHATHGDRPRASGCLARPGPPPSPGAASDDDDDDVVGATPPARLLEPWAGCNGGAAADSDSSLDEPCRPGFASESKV
T1 sequence (P51813 whole entry): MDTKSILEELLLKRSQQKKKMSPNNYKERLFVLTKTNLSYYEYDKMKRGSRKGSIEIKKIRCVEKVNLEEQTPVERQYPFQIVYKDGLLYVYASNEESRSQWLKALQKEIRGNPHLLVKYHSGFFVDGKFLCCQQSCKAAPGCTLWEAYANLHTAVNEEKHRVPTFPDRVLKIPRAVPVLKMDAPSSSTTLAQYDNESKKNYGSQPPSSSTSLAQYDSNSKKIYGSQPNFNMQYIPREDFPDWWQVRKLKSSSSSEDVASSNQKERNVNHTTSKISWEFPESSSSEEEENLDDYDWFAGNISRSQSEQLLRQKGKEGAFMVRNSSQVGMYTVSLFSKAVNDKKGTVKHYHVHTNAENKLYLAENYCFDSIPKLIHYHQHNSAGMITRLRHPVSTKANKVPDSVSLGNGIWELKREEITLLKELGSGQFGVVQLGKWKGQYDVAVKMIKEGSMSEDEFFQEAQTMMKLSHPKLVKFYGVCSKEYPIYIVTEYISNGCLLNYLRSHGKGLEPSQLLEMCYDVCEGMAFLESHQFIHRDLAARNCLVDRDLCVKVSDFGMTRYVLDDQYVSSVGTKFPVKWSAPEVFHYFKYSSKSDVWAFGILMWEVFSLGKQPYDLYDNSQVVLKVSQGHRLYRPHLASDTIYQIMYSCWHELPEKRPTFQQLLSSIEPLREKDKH
T5 sequence (P46098 24-478): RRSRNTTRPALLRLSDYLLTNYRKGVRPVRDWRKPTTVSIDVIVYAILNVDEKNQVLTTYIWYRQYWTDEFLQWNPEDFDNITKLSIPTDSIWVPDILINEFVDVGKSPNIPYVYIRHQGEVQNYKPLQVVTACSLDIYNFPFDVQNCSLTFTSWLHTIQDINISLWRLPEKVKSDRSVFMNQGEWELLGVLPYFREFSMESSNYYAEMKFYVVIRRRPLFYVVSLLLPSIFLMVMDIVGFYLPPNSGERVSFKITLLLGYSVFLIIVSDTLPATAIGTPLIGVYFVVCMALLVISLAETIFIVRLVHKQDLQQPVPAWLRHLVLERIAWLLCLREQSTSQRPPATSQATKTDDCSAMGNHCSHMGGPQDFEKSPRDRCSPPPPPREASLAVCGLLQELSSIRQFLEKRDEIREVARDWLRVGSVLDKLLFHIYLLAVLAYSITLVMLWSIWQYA
T15 sequence (O75676 whole entry): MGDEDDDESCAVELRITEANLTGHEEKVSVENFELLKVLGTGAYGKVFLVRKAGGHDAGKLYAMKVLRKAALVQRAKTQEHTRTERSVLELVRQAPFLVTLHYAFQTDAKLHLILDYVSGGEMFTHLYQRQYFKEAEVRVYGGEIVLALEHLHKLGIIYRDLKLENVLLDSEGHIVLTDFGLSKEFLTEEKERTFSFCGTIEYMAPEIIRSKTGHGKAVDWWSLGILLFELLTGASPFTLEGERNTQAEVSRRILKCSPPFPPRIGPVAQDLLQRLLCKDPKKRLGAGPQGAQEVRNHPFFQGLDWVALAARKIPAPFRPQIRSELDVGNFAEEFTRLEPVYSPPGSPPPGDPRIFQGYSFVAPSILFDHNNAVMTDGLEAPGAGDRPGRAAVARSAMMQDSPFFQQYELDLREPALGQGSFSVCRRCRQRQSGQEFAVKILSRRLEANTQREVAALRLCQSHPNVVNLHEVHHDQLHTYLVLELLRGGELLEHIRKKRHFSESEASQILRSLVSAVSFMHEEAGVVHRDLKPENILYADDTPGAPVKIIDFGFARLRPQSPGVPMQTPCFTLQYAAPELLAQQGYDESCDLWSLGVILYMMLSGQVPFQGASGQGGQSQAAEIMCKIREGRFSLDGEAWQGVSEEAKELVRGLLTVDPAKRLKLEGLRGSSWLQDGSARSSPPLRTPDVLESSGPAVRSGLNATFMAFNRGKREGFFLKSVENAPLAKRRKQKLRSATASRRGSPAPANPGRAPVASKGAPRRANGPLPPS
T30 sequence (Q01959 whole entry): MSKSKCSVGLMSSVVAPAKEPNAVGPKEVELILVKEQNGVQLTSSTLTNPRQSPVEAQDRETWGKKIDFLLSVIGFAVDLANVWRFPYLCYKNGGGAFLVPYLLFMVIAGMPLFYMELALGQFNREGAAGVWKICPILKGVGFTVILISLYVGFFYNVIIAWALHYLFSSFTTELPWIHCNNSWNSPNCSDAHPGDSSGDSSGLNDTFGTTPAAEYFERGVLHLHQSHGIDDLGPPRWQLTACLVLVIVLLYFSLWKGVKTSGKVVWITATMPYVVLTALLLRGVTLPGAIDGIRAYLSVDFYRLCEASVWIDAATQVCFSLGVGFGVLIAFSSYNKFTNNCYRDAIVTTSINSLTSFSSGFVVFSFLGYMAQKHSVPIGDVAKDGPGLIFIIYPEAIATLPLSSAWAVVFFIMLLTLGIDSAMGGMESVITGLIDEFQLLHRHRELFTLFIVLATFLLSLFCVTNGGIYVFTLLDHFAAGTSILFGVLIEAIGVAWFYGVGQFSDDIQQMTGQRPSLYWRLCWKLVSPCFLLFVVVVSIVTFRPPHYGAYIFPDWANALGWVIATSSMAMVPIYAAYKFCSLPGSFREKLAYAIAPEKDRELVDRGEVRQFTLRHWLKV
T16 sequence (P07947 whole entry): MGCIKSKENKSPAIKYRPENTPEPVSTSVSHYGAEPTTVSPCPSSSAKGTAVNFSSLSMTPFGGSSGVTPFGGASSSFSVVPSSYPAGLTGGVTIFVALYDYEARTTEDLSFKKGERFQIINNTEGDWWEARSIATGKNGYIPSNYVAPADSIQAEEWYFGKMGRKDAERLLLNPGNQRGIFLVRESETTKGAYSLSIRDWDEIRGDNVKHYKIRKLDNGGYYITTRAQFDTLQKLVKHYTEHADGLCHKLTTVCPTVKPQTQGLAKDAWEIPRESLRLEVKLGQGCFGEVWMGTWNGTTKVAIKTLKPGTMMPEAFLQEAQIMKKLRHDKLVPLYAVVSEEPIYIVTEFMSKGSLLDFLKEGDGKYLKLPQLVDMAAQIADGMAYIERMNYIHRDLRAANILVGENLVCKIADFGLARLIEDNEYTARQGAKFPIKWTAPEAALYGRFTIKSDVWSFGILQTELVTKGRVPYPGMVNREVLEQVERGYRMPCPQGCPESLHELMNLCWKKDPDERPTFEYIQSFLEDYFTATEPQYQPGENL

`Cn1cc(-c2ccc(-c3cncc(Cl)c3N3CCC4(CCNC4=O)CC3)cc2)cn1` [Compound 74, 8-(3-Chloro-5-(4-(1-methyl-1H-pyrazol-4-yl)phenyl)pyridin-4-yl)-2,8-diazaspiro[4.5]decan-1-one] was tested, and the remaining activity at 1 µM (BMX) was -2%, the inhibition at 10 µM (NTS1 (NT1) (h)) was -8% and the remaining activity at 1 µM (PIM-2) was 13%. The remaining activity at 1 µM (ROCK-I) was -1%, the inhibition at 10 µM (5-HT3 (h)) was 9% and the inhibition at 10 µM (5-HT2A (h)) was 1%. The remaining activity at 1 µM (CDK3/CYCLINE) was 1%, the remaining activity at 1 µM (GRK7) was 7% and the “% Inhibition of Control Specific Binding” value (sst (non-selective)) was 4%. The remaining activity at 1 µM (NEK6) was -10%, the remaining activity at 1 µM (SRPK1) was -4% and the inhibition at 10 µM (CCK1 (CCKA) (h)) was 2%. The remaining activity at 1 µM (LIMK1) was 0%, the remaining activity at 1 µM (STK33) was 9% and the remaining activity at 1 µM (RON) was -9%. The remaining activity at 1 µM (MSK2) was -6%, the remaining activity at 1 µM (YES) was 7% and the remaining activity at 1 µM (PKG1ALPHA) was 0%. The “% Inhibition of Control Specific Binding” value (Na+ channel (site 2)) was 29%, the remaining activity at 1 µM (MINK) was -12% and the remaining activity at 1 µM (CAMKI) was -12%. The remaining activity at 1 µM (PRKAA1) was 2%, the remaining activity at 1 µM (RSK4) was -17% and the remaining activity at 1 µM (SRC) was -6%. It also gave a remaining activity at 1 µM (SNK) of -1%, a remaining activity at 1 µM (AURKB) of -8% and a remaining activity at 1 µM (FGR) of 0%. For the same compound, the remaining activity at 1 µM (MLCK) was 1%, the remaining activity at 1 µM (HIPK1) was 10% and the remaining activity at 1 µM (HIPK2) was -12%. For the same compound, the remaining activity at 1 µM (TIE2) was -25%, the inhibition at 10 µM (dopamine transporter (h)) was 40% and the remaining activity at 1 µM (FGFR1) was -49%. For the same compound, the inhibition at 10 µM (β1 (h)) was 5%, the remaining activity at 1 µM (PDGFRALPHA) was -5% and the remaining activity at 1 µM (LKB1) was 5%. For the same compound, the remaining activity at 1 µM (TSSK1) was 2%, the inhibition at 10 µM (Y1 (h)) was -7% and the remaining activity at 1 µM (VRK2) was -2%. The inhibition at 10 µM (H2 (h)) was -2%, the remaining activity at 1 µM (BRSK2) was -4% and the remaining activity at 1 µM (SIK) was 20%. For the same compound, the inhibition at 10 µM (β2 (h)) was 6% and the remaining activity at 1 µM (FLT1) was -5%.
